Experimental data as given in patent publication US20230172206A1 (BASF SE, priority 2020, published 2023).

Legend:
[1] = test system: Phakopsora pachyrhizi (F129L); assay: Protective control of soybean rust on soybeans (PHAKPA P2); assay type: in vivo; conditions: for % PHAKPA (F129L) Disease level P2 at 4 ppm: protective P2, 4 ppm; for % PHAKPA (F129L) Disease level P2 at 16 ppm: protective P2, 16 ppm
[2] = test system: Phakopsora pachyrhizi (F129L); assay: Protective control of soybean rust on soybeans (PHAKPA P6); assay type: in vivo; conditions: for % PHAKPA (F129L) Disease level P6 at 4 ppm: protective P6, 4 ppm; for % PHAKPA (F129L) Disease level P6 at 16 ppm: protective P6, 16 ppm

Row | Compound | % PHAKPA (F129L) Disease level P2 at 4 ppm ([1]; soybean rust F129L isolate) [%] | % PHAKPA (F129L) Disease level P2 at 16 ppm ([1]; soybean rust F129L isolate) [%] | % PHAKPA (F129L) Disease level P6 at 4 ppm ([2]; soybean rust F129L isolate) [%] | % PHAKPA (F129L) Disease level P6 at 16 ppm ([2]; soybean rust F129L isolate) [%] | % PHAKPA (F129L) Disease level P2 at 4 ppm ([1]; F129L isolate) [%] | % PHAKPA (F129L) Disease level P2 at 16 ppm ([1]; F129L isolate) [%] | % PHAKPA (F129L) Disease level P6 at 4 ppm ([2]; F129L isolate) [%] | % PHAKPA (F129L) Disease level P6 at 16 ppm ([2]; F129L isolate) [%]
1 | CO/N=C(/C(=O)OC)c1cccc(C)c1CO/N=C(\C)c1ccccc1C#N [compound 224] | 97 | 100 | 100 | 100 | – | – | – | –
2 | CO/N=C(/C(=O)OC)c1cccc(C)c1CO/N=C(\C)c1c(F)ccc(F)c1OC(F)(F)F [compound 366] | 53 | 13 | 83 | 12 | – | – | – | –
3 | CNC(=O)/C(=N/OC)c1cccc(C)c1CO/N=C(\C)c1ccc(OC(F)(F)F)cc1C [compound 261] | 70 | 9 | 87 | 32 | – | – | – | –
4 | CO/N=C(/C(=O)OC)c1cccc(C)c1CO/N=C(\C)c1ccc(-c2ccccc2)cc1C(F)(F)F [compound 414] | – | – | – | – | 53 | 9 | 53 | 15
5 | CO/N=C(/C(=O)OC)c1cccc(Br)c1CO/N=C(\C)c1ccccc1 [compound 395] | – | – | – | – | 43 | 4 | 67 | 18
6 | CNC(=O)/C(=N/OC)c1cccc(C)c1CO/N=C(\C)c1ccc(F)cc1CC(F)(F)F [compound 394] | – | – | – | – | 9 | 3 | 12 | 2
7 | CO/N=C(/C(=O)OC)c1cccc(C)c1CO/N=C(\C)c1ccc(C#N)cc1C(F)(F)F [compound 423] | – | – | – | – | 100 | 57 | 93 | 53
8 | CO/N=C(/C(=O)OC)c1cccc(C)c1CO/N=C(\C)c1c(F)cc(F)cc1OC(F)(F)F [compound 361] | 80 | 18 | 88 | 31 | – | – | – | –
9 | CNC(=O)/C(=N/OC)c1cccc(C)c1CO/N=C(\C)c1ccccc1C1CC1 [compound 219] | 60 | 8 | 87 | 43 | – | – | – | –
10 | CNC(=O)/C(=N/OC)c1cccc(C)c1CO/N=C(\C)c1ccc(/C(C)=N\OC)cc1OC(F)(F)F [compound 415] | – | – | – | – | 47 | 5 | 67 | 11
11 | CNC(=O)/C(=N/OC)c1cccc(C)c1CO/N=C(\C)c1ccc(F)c(F)c1OC(F)(F)F [compound 451] | – | – | – | – | 1 | 0 | 2 | 0
12 | C#Cc1cc(F)c(F)c(/C(C)=N/OCc2c(C)cccc2/C(=N\OC)C(=O)NC)c1 [compound 243] | 4 | 0 | 37 | 1 | – | – | – | –
13 | CNC(=O)/C(=N/OC)c1cccc(C)c1CO/N=C(\C)c1ccc(C)cc1OC(F)(F)F [compound 340] | 23 | 4 | 42 | 7 | – | – | – | –
14 | CO/N=C(/C(=O)OC)c1cccc(C)c1CO/N=C(\C)c1ccc(Cc2ccccc2)cc1OC(F)(F)F [compound 416] | – | – | – | – | 57 | 27 | 67 | 25
15 | CNC(=O)/C(=N/OC)c1cccc(C)c1CO/N=C(\C)c1ccc(Cc2ccccc2)cc1OC(F)(F)F [compound 419] | – | – | – | – | 40 | 18 | 60 | 12
16 | CNC(=O)/C(=N/OC)c1cccc(OC)c1CO/N=C(\C)c1cccc(C(F)(F)F)c1 [compound 461] | – | – | – | – | 26 | 2 | 52 | 6
17 | CNC(=O)/C(=N/OC)c1cccc(C)c1CO/N=C(\C)c1ccccc1Oc1ccccc1 [compound 321] | 100 | 40 | – | – | – | – | – | –
18 | CO/N=C(/C(=O)OC)c1cccc(C)c1CO/N=C(\C)c1cc(Br)cc(F)c1F [compound 240] | 70 | 8 | 73 | 3 | – | – | – | –
19 | CNC(=O)/C(=N/OC)c1cccc(C)c1CO/N=C(\C)c1cccc(F)c1OC(F)(F)F [compound 354] | 17 | 2 | 21 | 4 | – | – | – | –

Row | Compound | % PHAKPA (F129L) Disease level P2 at 4 ppm ([1]; soybean rust F129L isolate) [%] | % PHAKPA (F129L) Disease level P2 at 16 ppm ([1]; soybean rust F129L isolate) [%] | % PHAKPA (F129L) Disease level P6 at 4 ppm ([2]; soybean rust F129L isolate) [%] | % PHAKPA (F129L) Disease level P6 at 16 ppm ([2]; soybean rust F129L isolate) [%] | % PHAKPA (F129L) Disease level P2 at 4 ppm ([1]; F129L isolate) [%] | % PHAKPA (F129L) Disease level P2 at 16 ppm ([1]; F129L isolate) [%] | % PHAKPA (F129L) Disease level P6 at 4 ppm ([2]; F129L isolate) [%] | % PHAKPA (F129L) Disease level P6 at 16 ppm ([2]; F129L isolate) [%]
20 | CO/C=C(/C(=O)OC)c1cccc(C)c1CO/N=C(\C)c1ccc(F)c(F)c1OC(F)(F)F [compound 450] | – | – | – | – | 3 | 1 | 4 | 1
21 | CO/N=C(/C(=O)OC)c1cccc(C)c1CO/N=C(\C)c1ccc(Cc2ccccc2)cc1C(F)(F)F [compound 408] | – | – | – | – | 30 | 12 | 33 | 13
22 | C#Cc1cccc(/C(C)=N/OCc2c(C)cccc2/C(=N\OC)C(=O)NC)c1F [compound 401] | – | – | – | – | 17 | 5 | 32 | 4
23 | CO/N=C(/C(=O)OC)c1cccc(C)c1CO/N=C(\C)c1c(Cl)cc(Cl)cc1OC(F)(F)F [compound 427] | – | – | – | – | 100 | 90 | 60 | 47
24 | CO/N=C(/C(=O)OC)c1cccc(C)c1CO/N=C(\C)c1ccc(Br)cc1C(F)(F)F [compound 257] | 93 | 35 | 100 | 57 | – | – | – | –
25 | CNC(=O)/C(=N/OC)c1cccc(C)c1CO/N=C(\C)c1ccc(Cc2ccccc2)cc1C(F)(F)F [compound 407] | – | – | – | – | 12 | 6 | 17 | 4
26 | CO/C=C(/C(=O)OC)c1cccc(C)c1CO/N=C(\C)c1ccc(OC(F)(F)F)cc1Cl [compound 463] | – | – | – | – | 6 | 0 | 3 | 0
27 | CNC(=O)/C(=N/OC)c1cccc(C)c1CO/N=C(\C)c1ccc(Oc2ccc(Cl)cc2)cc1C(F)(F)F [compound 336] | 63 | 20 | 50 | 17 | – | – | – | –
28 | CO/C=C(/C(=O)OC)c1cccc(C)c1CO/N=C(\C)c1c(F)cccc1C(F)(F)F [compound 390] | – | – | – | – | 22 | 0 | 18 | 2
29 | CO/N=C(/C(=O)OC)c1cccc(C)c1CO/N=C(\C)c1ccc(OC)cc1C(F)(F)F [compound 328] | 33 | 8 | 23 | 5 | – | – | – | –
30 | CNC(=O)/C(=N/OC)c1cccc(C)c1CO/N=C(\COC)c1ccccc1 [compound 295] | 2 | 0 | 11 | 0 | – | – | – | –
31 | C=Cc1cccc(/C(=N\OC)C(=O)NC)c1CO/N=C(\C)c1ccccc1 [compound 400] | – | – | – | – | 2 | 0 | 8 | 0
32 | CCC/C(=N\OCc1c(C)cccc1/C(=N\OC)C(=O)NC)c1ccccc1 [compound 388] | – | – | – | – | 1 | 0 | 3 | 0
33 | CNC(=O)/C(=N/OC)c1cccc(C)c1CO/N=C(\C)c1cc(C(F)(F)F)ccc1C(F)(F)F [compound 272] | 60 | 8 | – | – | – | – | – | –
34 | CNC(=O)/C(=N/OC)c1cccc(C)c1CO/N=C(\C)c1ccccc1OC(C)C [compound 315] | 100 | 60 | – | – | – | – | – | –
35 | CNC(=O)/C(=N/OC)c1cccc(C)c1CO/N=C(\C)c1ccccc1OCOC [compound 314] | 100 | 40 | – | – | – | – | – | –
36 | CNC(=O)/C(=N/OC)c1cccc(C)c1CO/N=C(\C)c1cc(C(F)(F)F)ccc1C [compound 273] | 60 | 3 | – | – | – | – | – | –
37 | CNC(=O)/C(=N/OC)c1cccc(C)c1CO/N=C(\C)c1ccc(OC(F)(F)F)cc1Cl [compound 271] | 5 | 1 | – | – | – | – | – | –
